Data as given in the CheMixHub ionic liquid set.

Test: xn = mol fraction of the nth substance listed

CC[n+]1ccn(C)c1.COP(=O)([O-])OC + CCO
Settings | viscosity [mPa·s]
293.15 K, 100 kPa, x1 = 0.7006 | 121.4
298.15 K, 100 kPa, x1 = 0.5013 | 37.58
298.15 K, 100 kPa, x1 = 0.7006 | 95.5
298.15 K, 100 kPa, x1 = 0.8011 | 141.3
298.15 K, 101 kPa, x2 = 0.398 | 68.8
298.15 K, 101 kPa, x2 = 0.598 | 23.29
303.15 K, 100 kPa, x1 = 0.3007 | 10.67
303.15 K, 100 kPa, x1 = 0.5994 | 48.5
303.15 K, 101 kPa, x2 = 0.398 | 55.24
308.15 K, 100 kPa, x1 = 1 | 134.2
308.15 K, 101 kPa, x2 = 0.798 | 4.904
313.15 K, 100 kPa, x1 = 0.3007 | 8.34
313.15 K, 100 kPa, x1 = 0.5994 | 31.82
313.15 K, 100 kPa, x1 = 1 | 102.6
318.15 K, 100 kPa, x1 = 0.3007 | 7.45
318.15 K, 101 kPa, x2 = 0.398 | 31.25
318.15 K, 101 kPa, x2 = 0.598 | 12.92
323.15 K, 100 kPa, x1 = 0.5013 | 15.7
323.15 K, 100 kPa, x1 = 0.8011 | 38.59
328.15 K, 100 kPa, x1 = 0.7006 | 25.53
328.15 K, 101 kPa, x2 = 0.199 | 38.21
333.15 K, 100 kPa, x1 = 0.1004 | 1.71
333.15 K, 100 kPa, x1 = 0.7006 | 21.5
333.15 K, 100 kPa, x1 = 1 | 41.05
338.15 K, 100 kPa, x1 = 0.8988 | 26.44

CC[n+]1ccn(C)c1.O=S(=O)([N-]S(=O)(=O)C(F)(F)F)C(F)(F)F + CCOC(C)=O
100 kPa
Settings | viscosity [mPa·s]
303.15 K, x2 = 0.2977 | 12.85
303.15 K, x2 = 0.3962 | 9.43
303.15 K, x2 = 0.5961 | 4.75
303.15 K, x2 = 0.7974 | 1.97
303.15 K, x2 = 0.8979 | 0.88
308.15 K, x2 = 0 | 23.29
308.15 K, x2 = 0.2977 | 11.24
313.15 K, x2 = 0.3962 | 7.36
313.15 K, x2 = 0.5051 | 5.15
318.15 K, x2 = 0.1858 | 11.49
318.15 K, x2 = 0.3962 | 6.49
318.15 K, x2 = 0.5051 | 4.36
318.15 K, x2 = 0.8979 | 0.73
323.15 K, x2 = 0.6909 | 2.05

CC[n+]1ccn(C)c1.O=S(=O)([N-]S(=O)(=O)C(F)(F)F)C(F)(F)F + CCOS(=O)(=O)[O-].CC[n+]1ccn(C)c1
298.15 K, 100 kPa
Settings | viscosity [mPa·s]
x1 = 0.1042 | 95.6
x1 = 0.2975 | 84.1

CC[n+]1ccccc1.[Cl-] + CC[n+]1ccccc1.[Br-]
101 kPa
Settings | viscosity [mPa·s]
418.1 K, x1 = 0.196 | 9.57
418.1 K, x1 = 0.613 | 9.2
423.1 K, x1 = 0.196 | 8.73
423.1 K, x1 = 0.303 | 8.64
423.1 K, x1 = 0.613 | 8.37
423.1 K, x1 = 0.885 | 8.17
428.1 K, x1 = 0.303 | 7.88
428.1 K, x1 = 0.688 | 7.61
433.1 K, x1 = 0.503 | 7.14
438.1 K, x1 = 0.613 | 6.53
